Reference: patent publication US20160075765A1, “MODIFIED COLLAGEN MOLECULES” (AGENCY FOR SCIENCE, TECHNOLOGY AND RESEARCH, priority 2013, published 2016)

What was measured:
[1] = Thermal unfolding (thermal denaturation) followed by circular dichroism at 225 nm; type: physicochemical; conditions: CD, minimum of the derivative of fraction folded plot; 0.2 mM peptide, 10 mM sodium phosphate pH 7.0; not preheated; mixtures at ratio 1:2
Description: (§1) CD spectra were recorded on an Aviv 410 circular dichroism spectrometer equipped with temperature controller. Peptide solutions at concentrations of 200 μM were used. All sample solutions made in 10 mM sodium phosphate-dibasic buffer (pH 7.0) were equilibrated for 24 hr at 4° C. before CD measurements. A Quartz Cell of 1 mm path length was used. For wavelength scan, temperature was increased to the desired points at a rate of 10° C./hr and the sample solutions were equilibrated for 10 min before the measurements. Spectra were recorded from 260 to 190 nm and mean residue ellipticity [θ] was calculated as follows;
(§2) θ represents the ellipticity in millidegrees, N the number of amino acid residues, c the molar concentration in mol·L^−1, and l the cell path length in cm. Thermal denaturation curves were obtained at final peptide concentrations of 0.2 mM and molar ellipticity at 225 nm was measured as a function of temperature in a range of 5 to 80° C. at a heating rate of 10° C./hr. All annealed samples were heated for 30 min at 85° C. and then cooled down to 4° C. at a rate of 1° C./min followed by equilibration for 24 hr at 4° C. before the measurements. The melting temperatures were determined from the minimum points in the first derivative of the melting curves.

[2] = CD wavelength scan, helical conformation at a set temperature; type: physicochemical; conditions: 200 μM peptide, pH 7.0
Description: as §1, §2

Tm (melting temperature of triple helix) [1] | conformation by CD at 25° C. [2] | Substance
39.4 °C | retained the PPII helical structure | Ac-(PXG)2-(PRG)4-(PXG)2-C(O)NH2 [Peptide 3]
No triple helix | random coil conformations | Ac-(PXG)2-(PKG)4-(PXG)2-C(O)NH2 [Peptide 2]
